Source: US20110172296A1, “MODULATION OF TRANSFORMING GROWTH FACTOR-BETA 1 EXPRESSION” (priority 2010, published 2011)
Values joined by “and” are separate entries in the source; they are usually repeats but may differ in a detail not shown here. Equal entries are not always repeated. e = 2'-O-(2-methoxyethyl) (MOE); d = 2'-deoxy (DNA)

Key:
human TGF-beta1 mRNA [1] = experiment: Antisense inhibition of human TGF-beta1 mRNA in HuVEC cells, single 10 nM dose, Lipofectamine 2000 (Example 2); format: cell-based; details: for % inhibition: 10 nM oligonucleotide, HuVEC, relative to untreated control cells, gapmers targeted to SEQ ID NO: 1; for inhibition of a TGF-beta1 mRNA: threshold lists of Oligo IDs, 10 nM
How it was run: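 HuVEC cells (5,000/well) transfected with 10 nM 2-13-5 MOE gapmer (phosphorothioate, 5-methylcytosine) via Lipofectamine 2000 for 4 h, then recovered ~24 h. mRNA measured by qRT-PCR, normalized to RIBOGREEN total RNA; percent inhibition versus untreated cells.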

human TGF-beta1 mRNA [2] = experiment: Dose-dependent antisense inhibition of human TGF-beta1 in HuVEC cells, Lipofectamine 2000, 0.9375-30 nM (Example 3); format: cell-based; details: Lipofectamine 2000
Method: Cells were plated at a density of 5,000 cells per well and transfected using Lipofectamine™ 2000 reagent with 0.9375 nM, 1.875 nM, 3.75 nM, 7.5 nM, 15 nM, and 30 nM concentrations of antisense oligonucleotide for 4 hours, as specified in Table 3. After a recovery period of approximately 16 hours, RNA was isolated from the cells and TGF-beta1 mRNA levels were measured by quantitative real-time PCR. Human TGF-beta1 primer probe set RTS 2980 (forward sequence CTCTCCGACCTGCCACAGA, SEQ ID NO: 160; reverse sequence […], SEQ ID NO: 53; probe sequence CCCTATTCAAGACCACCCACCTTCTGGTX, SEQ ID NO: 161) was used to measure mRNA levels. TGF-beta1 mRNA levels were adjusted according to total RNA content, as measured by RIBOGREEN®. Results are presented as percent inhibition of TGF-beta1, relative to untreated control cells.

human TGF-beta1 mRNA [3] = experiment: Dose-dependent antisense inhibition of human TGF-beta1 in HuVEC cells, Lipofectamine 2000, 0.3292-80 nM, comparison with oligos of U.S. Pat. No. 6,436,909 (Example 4); format: cell-based
Method: The dose-dependent antisense inhibition potential of these gapmers was compared with that of Oligo IDs 104992 and 1138498 from U.S. Pat. No. 6,436,909. Cells were plated at a density of 5,000 cells per well and transfected using Lipofectamine™ 2000 reagent with 0.3292 nM, 0.9877 nM, 2.963 nM, 8.8889 nM, 26.6667 nM, and 80 nM concentrations of antisense oligonucleotide for 4 hours, as specified in Table 4. After a recovery period of approximately 16 hours, RNA was isolated from the cells and TGF-beta1 mRNA levels were measured by quantitative real-time PCR. Human TGF-beta1 primer probe set RTS 2980 was used to measure mRNA levels. TGF-beta1 mRNA levels were adjusted according to total RNA content, as measured by RIBOGREEN®. Results are presented as percent inhibition of TGF-beta1, relative to untreated control cells. […] All the antisense oligonucleotides in Table 4 target human TGF-beta1 mRNA (SEQ ID NO: 1).

human TGF-beta1 mRNA [4] = experiment: Dose-dependent confirmation of antisense inhibition of human TGF-beta1 in HuVEC cells after large-scale synthesis, Lipofectamine 2000, 0.007-15 nM (Example 5); format: cell-based; details: for percent inhibition of TGF-beta1: Lipofectamine 2000; for IC50: Lipofectamine 2000, Example 5
Method: Cells were plated at a density of 5,000 cells per well and transfected using Lipofectamine™ 2000 reagent with 0.007 nM, 0.021 nM, 0.062 nM, 0.185 nM, 0.556 nM, 1.667 nM, 5 nM, and 15 nM concentrations of antisense oligonucleotide for 4 hours, as specified in Table 5. After a recovery period of approximately 16 hours, RNA was isolated from the cells and TGF-beta1 mRNA levels were measured by quantitative real-time PCR. Human TGF-beta1 primer probe set RTS 2980 was used to measure mRNA levels. TGF-beta1 mRNA levels were adjusted according to total RNA content, as measured by RIBOGREEN®. Results are presented as percent inhibition of TGF-beta1, relative to untreated control cells.

human TGF-beta1 mRNA [5] = experiment: Dose-dependent confirmation of antisense inhibition of human TGF-beta1 in HuVEC cells, electroporation (Example 6); format: cell-based
Method: The gapmers from Example 5 (see Table 5) were also tested at various doses in HuVEC cells using electroporation as the transfection reagent. Cells were plated at a density of 20,000 cells per well and transfected using electroporation with 0.15625 nM, 0.3125 nM, 0.625 nM, 1.25 nM, 2.5 nM, 5 nM, 10 nM, and 20 nM concentrations of antisense oligonucleotide for 4 hours, as specified in Table 6. After a recovery period of approximately 16 hours, RNA was isolated from the cells and TGF-beta1 mRNA levels were measured by quantitative real-time PCR. TGF-beta1 mRNA levels were adjusted according to total RNA content, as measured by RIBOGREEN®. Results are presented as percent inhibition of TGF-beta1, relative to untreated control cells.

BALB/c mice [6] = details: mouse, in vivo
Method: (§1) These gapmer oligonucleotides were designed to target human TGF-beta1 and have varying degrees of mismatch with murine TGF-beta1 sequence, as shown in Table 1. Oligo ID Nos. 413982 and 414040 have greater than 3 mismatches to the murine TGF-beta1 sequence. Oligo ID No. 414035 has 2 mismatches to murine TGF-beta1. Oligo ID No. 414036 has no mismatches to murine TGF-beta1.
(§2) BALB/c mice were injected with 25 mg/kg or 50 mg/kg of Oligo ID Nos. 413982, 414035, 414036, or 414040 twice a week for 4 weeks. A control group of mice was injected with phosphate buffered saline (PBS) twice a week for 4 weeks. Plasma transaminase levels were evaluated bi-weekly.
(§3) To evaluate the impact of TGF-beta1 antisense oligonucleotides on the hepatic function of mice described above, plasma concentrations of transaminases were measured using an automated clinical chemistry analyzer (Hitachi Olympus AU400e, Melville, N.Y.).

BALB/c mice [7] = experiment: Tolerability in BALB/c mice: plasma transaminases ALT and AST (Example 7); details: for aspartate transaminase levels: plasma; for increase in ALT/AST: 25 or 50 mg/kg twice a week for four weeks
Method: as §1, §2, §3

Substance: 413982 (antisense GCCTCCGGCTCCCAGCGGCA; sugars from the 5' end e2 d13 e5, backbone and methylation of C not given here) [compound 413982]
- % inhibition (human TGF-beta1 mRNA [1]): 88%
- inhibition of a TGF-beta1 mRNA (human TGF-beta1 mRNA [1]): 60% and 65% and 70% and 75% and 80% and 85%
- percent inhibition of TGF-beta1 (human TGF-beta1 mRNA [2]; 0.9375 nM): 56%
- percent inhibition of TGF-beta1 (human TGF-beta1 mRNA [2]; 1.875 nM): 77%
- percent inhibition of TGF-beta1 (human TGF-beta1 mRNA [2]; 3.75 nM): 88%
- percent inhibition of TGF-beta1 (human TGF-beta1 mRNA [2]; 7.5 nM): 95%
- percent inhibition of TGF-beta1 (human TGF-beta1 mRNA [2]; 15 nM): 96%
- percent inhibition of TGF-beta1 (human TGF-beta1 mRNA [2]; 30 nM): 97%
- percent inhibition of TGF-beta1 (human TGF-beta1 mRNA [3]; 0.3292 nM): 76%
- percent inhibition of TGF-beta1 (human TGF-beta1 mRNA [3]; 0.9877 nM): 87%
- percent inhibition of TGF-beta1 (human TGF-beta1 mRNA [3]; 2.963 nM): 91%
- percent inhibition of TGF-beta1 (human TGF-beta1 mRNA [3]; 8.8889 nM): 95%
- percent inhibition of TGF-beta1 (human TGF-beta1 mRNA [3]; 26.6667 nM): 95%
- percent inhibition of TGF-beta1 (human TGF-beta1 mRNA [3]; 80.0 nM): 93%
- percent inhibition of TGF-beta1 (human TGF-beta1 mRNA [4]; 0.007 nM): 0%
- percent inhibition of TGF-beta1 (human TGF-beta1 mRNA [4]; 0.021 nM): 14%
- percent inhibition of TGF-beta1 (human TGF-beta1 mRNA [4]; 0.062 nM): 31%
- percent inhibition of TGF-beta1 (human TGF-beta1 mRNA [4]; 0.185 nM): 56%
- percent inhibition of TGF-beta1 (human TGF-beta1 mRNA [4]; 0.556 nM): 71%
- percent inhibition of TGF-beta1 (human TGF-beta1 mRNA [4]; 1.667 nM): 79%
- percent inhibition of TGF-beta1 (human TGF-beta1 mRNA [4]; 5 nM): 89%
- percent inhibition of TGF-beta1 (human TGF-beta1 mRNA [4]; 15 nM): 92%
- IC50 (human TGF-beta1 mRNA [4]): 0.24 nM
- percent inhibition of TGF-beta1 mRNA relative to untreated control cells (human TGF-beta1 mRNA [5]; 0.15625 nM oligonucleotide): 26%
- percent inhibition of TGF-beta1 mRNA relative to untreated control cells (human TGF-beta1 mRNA [5]; 0.3125 nM oligonucleotide): 32%
- percent inhibition of TGF-beta1 mRNA relative to untreated control cells (human TGF-beta1 mRNA [5]; 0.625 nM oligonucleotide): 57%
- percent inhibition of TGF-beta1 mRNA relative to untreated control cells (human TGF-beta1 mRNA [5]; 1.25 nM oligonucleotide): 79%
- percent inhibition of TGF-beta1 mRNA relative to untreated control cells (human TGF-beta1 mRNA [5]; 2.5 nM oligonucleotide): 85%
- percent inhibition of TGF-beta1 mRNA relative to untreated control cells (human TGF-beta1 mRNA [5]; 5.00 nM oligonucleotide): 89%
- percent inhibition of TGF-beta1 mRNA relative to untreated control cells (human TGF-beta1 mRNA [5]; 10.00 nM oligonucleotide): 93%
- percent inhibition of TGF-beta1 mRNA relative to untreated control cells (human TGF-beta1 mRNA [5]; 20 nM oligonucleotide): 96%
- tolerability compared to Oligo ID 105204 (BALB/c mice [6]): improved tolerability
- alanine transaminase levels (BALB/c mice [7]; 25 mg/kg twice a week, Week 2): 59 IU/L
- alanine transaminase levels (BALB/c mice [7]; 25 mg/kg twice a week, Week 4): 140 IU/L
- aspartate transaminase levels (BALB/c mice [7]; 25 mg/kg twice a week, Week 2): 74 IU/L
- aspartate transaminase levels (BALB/c mice [7]; 25 mg/kg twice a week, Week 4): 161 IU/L
- alanine transaminase levels (BALB/c mice [7]; 50 mg/kg twice a week, Week 2): 77 IU/L
- alanine transaminase levels (BALB/c mice [7]; 50 mg/kg twice a week, Week 4): 462 IU/L
- aspartate transaminase levels (BALB/c mice [7]; 50 mg/kg twice a week, Week 2): 92 IU/L
- aspartate transaminase levels (BALB/c mice [7]; 50 mg/kg twice a week, Week 4): 460 IU/L
- increase in ALT/AST (BALB/c mice [7]): < 16 fold

Substance: 414035 (antisense GTCCTTAAATACAGCCCCCA; sugars from the 5' end e2 d13 e5, backbone and methylation of C not given here) [compound 414035]
- % inhibition (human TGF-beta1 mRNA [1]): 89%
- inhibition of a TGF-beta1 mRNA (human TGF-beta1 mRNA [1]): 60% and 65% and 70% and 75% and 80% and 85%
- percent inhibition of TGF-beta1 (human TGF-beta1 mRNA [2]; 0.9375 nM): 64%
- percent inhibition of TGF-beta1 (human TGF-beta1 mRNA [2]; 1.875 nM): 75%
- percent inhibition of TGF-beta1 (human TGF-beta1 mRNA [2]; 3.75 nM): 88%
- percent inhibition of TGF-beta1 (human TGF-beta1 mRNA [2]; 7.5 nM): 94%
- percent inhibition of TGF-beta1 (human TGF-beta1 mRNA [2]; 15 nM): 95%
- percent inhibition of TGF-beta1 (human TGF-beta1 mRNA [2]; 30 nM): 94%
- percent inhibition of TGF-beta1 (human TGF-beta1 mRNA [3]; 0.3292 nM): 74%
- percent inhibition of TGF-beta1 (human TGF-beta1 mRNA [3]; 0.9877 nM): 84%
- percent inhibition of TGF-beta1 (human TGF-beta1 mRNA [3]; 2.963 nM): 92%
- percent inhibition of TGF-beta1 (human TGF-beta1 mRNA [3]; 8.8889 nM): 94%
- percent inhibition of TGF-beta1 (human TGF-beta1 mRNA [3]; 26.6667 nM): 93%
- percent inhibition of TGF-beta1 (human TGF-beta1 mRNA [3]; 80.0 nM): 93%
- percent inhibition of TGF-beta1 (human TGF-beta1 mRNA [4]; 0.007 nM): 9%
- percent inhibition of TGF-beta1 (human TGF-beta1 mRNA [4]; 0.021 nM): 26%
- percent inhibition of TGF-beta1 (human TGF-beta1 mRNA [4]; 0.062 nM): 45%
- percent inhibition of TGF-beta1 (human TGF-beta1 mRNA [4]; 0.185 nM): 59%
- percent inhibition of TGF-beta1 (human TGF-beta1 mRNA [4]; 0.556 nM): 76%
- percent inhibition of TGF-beta1 (human TGF-beta1 mRNA [4]; 1.667 nM): 84%
- percent inhibition of TGF-beta1 (human TGF-beta1 mRNA [4]; 5 nM): 90%
- percent inhibition of TGF-beta1 (human TGF-beta1 mRNA [4]; 15 nM): 91%
- IC50 (human TGF-beta1 mRNA [4]): 0.13 nM
- percent inhibition of TGF-beta1 mRNA relative to untreated control cells (human TGF-beta1 mRNA [5]; 0.15625 nM oligonucleotide): 17%
- percent inhibition of TGF-beta1 mRNA relative to untreated control cells (human TGF-beta1 mRNA [5]; 0.3125 nM oligonucleotide): 49%
- percent inhibition of TGF-beta1 mRNA relative to untreated control cells (human TGF-beta1 mRNA [5]; 0.625 nM oligonucleotide): 63%
- percent inhibition of TGF-beta1 mRNA relative to untreated control cells (human TGF-beta1 mRNA [5]; 1.25 nM oligonucleotide): 77%
- percent inhibition of TGF-beta1 mRNA relative to untreated control cells (human TGF-beta1 mRNA [5]; 2.5 nM oligonucleotide): 89%
- percent inhibition of TGF-beta1 mRNA relative to untreated control cells (human TGF-beta1 mRNA [5]; 5.00 nM oligonucleotide): 94%
- percent inhibition of TGF-beta1 mRNA relative to untreated control cells (human TGF-beta1 mRNA [5]; 10.00 nM oligonucleotide): 94%
- percent inhibition of TGF-beta1 mRNA relative to untreated control cells (human TGF-beta1 mRNA [5]; 20 nM oligonucleotide): 94%
- tolerability compared to Oligo ID 105204 (BALB/c mice [6]): improved tolerability
- alanine transaminase levels (BALB/c mice [7]; 25 mg/kg twice a week, Week 2): 56 IU/L
- alanine transaminase levels (BALB/c mice [7]; 25 mg/kg twice a week, Week 4): 45 IU/L
- aspartate transaminase levels (BALB/c mice [7]; 25 mg/kg twice a week, Week 2): 82 IU/L
- aspartate transaminase levels (BALB/c mice [7]; 25 mg/kg twice a week, Week 4): 116 IU/L
- alanine transaminase levels (BALB/c mice [7]; 50 mg/kg twice a week, Week 2): 66 IU/L
- alanine transaminase levels (BALB/c mice [7]; 50 mg/kg twice a week, Week 4): 67 IU/L
- aspartate transaminase levels (BALB/c mice [7]; 50 mg/kg twice a week, Week 2): 123 IU/L
- aspartate transaminase levels (BALB/c mice [7]; 50 mg/kg twice a week, Week 4): 155 IU/L
- increase in ALT/AST (BALB/c mice [7]): < 3 fold
